Measured values from PubChem BioAssay (NCI).
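Test compounds were applied to cells in 96-well plates for 48 hours at 5 doses. Here, GI50 denotes the concentration required for 50% inhibition of growth. TGI: total growth inhibition.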

Legend:
Assay in all cases: DTP human tumour cell line panel, 48 h
[1] = system: ACHN renal
[2] = system: HCC-2998 colon
[3] = system: HCT-116 colon
[4] = system: HS 578T breast
[5] = system: HT29 colon
[6] = system: NCI-H226 lung
[7] = system: NCI/ADR-RES ovarian
[8] = system: SNB-75 CNS
[9] = system: T-47D breast
[10] = system: U251 CNS

SMILES	GI50 [1] [µM]	TGI [1] [µM]	GI50 [2] [µM]	TGI [2] [µM]	GI50 [3] [µM]	TGI [3] [µM]	GI50 [4] [µM]	TGI [4] [µM]	GI50 [5] [µM]	TGI [5] [µM]	GI50 [6] [µM]	TGI [6] [µM]	GI50 [7] [µM]	TGI [7] [µM]	GI50 [8] [µM]	TGI [8] [µM]	GI50 [9] [µM]	TGI [9] [µM]	GI50 [10] [µM]	TGI [10] [µM]
CN(C)CCNc1c2c(c(NCCN(C)C)c3c(CO)c[nH]c13)C(=O)c1ccccc1C2=O	1.92	9.96	1.43	5.46	0.721	10.9	3.36	13.6	1.4	> 23.2	7.37	26.3	4.06	22.7	6.38	22.6	22.1	48.2	3.07	22.5
FC(F)(F)c1cc(NC2=NCCN=C(Nc3cc(C(F)(F)F)cc(C(F)(F)F)c3)SS2)cc(C(F)(F)F)c1	2.6	8.93	6.15	19.3	3.73	12.5	5.08	27.6	3.85	14.1	3.07	16.2	5.23	21.5	9.35	45.6	4.22	23.7	2.82	10.7
Cc1cc(S(=O)(=O)Nc2nc3cc(-c4ccsc4)sc3c(=O)n2N)c(S)cc1Cl	30.4	> 100	48.4	> 100	47.4	> 100	35.7	> 100	30.4	> 100	49.7	> 100	50.6	> 100	> 100	> 100	28.8	> 100	34.1	> 100
N#CC1CCc2c(c(-c3cn[nH]c3C(F)(F)F)nc3c(F)cc4[nH]ncc4c23)C1 (stereo not given)	8.21	75.1	11	28.1	3.15	19.6	3.16	11.5	9.6	> 100	16	> 100	> 100	> 100	3.38	8.96	3.06	26.1	15.1	> 100
Cc1nn2c(/C=C3\C(=O)Nc4ccccc43)c(C)nc2s1	> 100	> 100	13.7	> 100	15.7	> 100	78	> 100	5.32	> 100	> 100	> 100	6.3	99	53.7	> 100	32	> 100	71.9	> 100
